Where “and” joins values, the source holds several entries; their conditions need not be identical. Identical values can stand only once.
What was measured:
[1] = Octanol:water partition coefficients; assay type: physicochemical; details: 10 mM Tris pH 7.4; read-out: Octanol/Water Partition Coefficient ± SD (converted)
Description: One mg of each hypnotic was added to 10 ml of water buffered with 10 mM Tris (pH 7.4) and 0.5 ml or 1 ml of octanol. The mixture was stirred overnight and then centrifuged to more fully separate the organic and aqueous phases. The relative hypnotic concentrations in each phase (i.e. the partition coefficient) were determined by high performance liquid chromatography as described for blood.

[2] = in vivo
[3] = Pharmacokinetics in rats, IV bolus and bolus plus infusion
in vivo = details: rat
rats = test: Anesthesia (LORR) in rats by IV bolus and continuous infusion; assay type: in vivo, rat
Description: Rats were monitored for anesthesia as assessed by loss of righting reflex (LORR) and the subsequent time to recovery from LORR. Bolus doses of 1.0 mg/kg and greater induced dose-dependent anesthesia. The minimum effective bolus anesthetic dose in rats was approximately 1 mg/kg based on LORR observations. Time to recovery from LORR was dose-dependent.
Cyclopropyl-MOC-metomidate anesthesia in rats by continuous infusion without a bolus induction dose was examined in this study. An infusion of […] induced anesthesia after approximately 3 minutes as measured by LORR. Recovery of righting reflex took approximately 4 minutes following infusion discontinuation whether the infusion was conducted for 5 or 120 minutes.
Cyclopropyl-MOC-metomidate continuous infusion studies were conducted to determine the minimum effective infusion dose required to induce anesthesia. […] When stable anesthesia was observed after 30 minutes of infusion, the infusion rate was reduced to 0.8 mg/kg/min and then to 0.6 mg/kg/min and 0.4 mg/kg/min at 30-minute intervals. Anesthesia and LORR was maintained in all rats at 0.6 mg/kg/min. […] In one rat, the infusion at 0.4 mg/kg/min was discontinued after 7 minutes due to inadequate the anesthesia. The other two rats received the full 30-minute infusion at […] with no further change. Rats recovered from LORR and resumed normal behavior within 2-6 minutes of stopping the infusion. Based on these observations, the minimum effective infusion dose rate required to maintain anesthesia was determined to be approximately 0.5 mg/kg/min. An independent assessment of “minimal immobilizing infusion rate” of cyclopropyl-MOC-metomidate in rats yielded a value of 0.89±0.18 mg/kg/min.

Sprague-Dawley rats = test: In vivo sedative/hypnotic testing, IV bolus, rats; parameters: species or system rat; details: rats
beagle dogs = test system: beagle dogs
Description: A pilot study was conducted in dogs to assess anesthesia induced by cyclopropyl-MOC-metomidate continuous infusion without a bolus induction dosing. Two dogs received cyclopropyl-MOC-metomidate as a 1 mg/kg/min IV infusion without prior bolus administration.
Anesthesia induction was determined using the methods described above.
Etomidate was administered to dogs at IV bolus doses ranging from 0.25 to 2 mg/kg. Anesthesia in the dogs was measured as described above. […] The bolus dose of 2 mg/kg was adopted to induce anesthesia prior to subsequent continuous infusions.
Propofol was administered to dogs as an IV bolus dose of 5 mg/kg to induce anesthesia followed by a continuous infusion at 0.4 mg/kg/min.

[4] = test system: adrenal cortisol production
Description: Dexamethasone (0.01 mg/kg) was administered two hours before the first administration of ACTH and re-administered every 2 hours to maintain suppression. Dexamethasone pretreatment suppresses the hypothalamo-hypophyseal axis to prevent endogenous ACTH release and subsequent adrenocortical steroid secretion. […] Synthetic ACTH (Synacthen, 250 μg) was then administered at times after test substance administration to evaluate the effects of the test substance on the release of the adrenal steroid, cortisol.
All study methods described for Study 1 were repeated, except the ACTH administration at the end of infusion was omitted.

[5] = Pharmacokinetics in dogs, IV bolus and bolus plus infusion; assay type: in vivo, dog
GABAA receptor channel = test: radioligand binding to the GABAA receptor channel; details: 10 μM
[6] = bolus and continuous infusion, listed as cyclopropyl-MOC-metomidate
[7] = dogs, 4 mg/kg bolus or bolus plus 0.5 mg/kg/min for 30 or 120 minutes

For `COC(=O)C1(OC(=O)c2cncn2[C@H](C)c2ccccc2)CC1` [Cyclopropyl- methoxycarbonyl metomidate, cyclopropyl-methoxycarbonyl metomidate], the logD [1] was 2.62, the “plasma concentrations associated with anesthesia” value [2] was 200 to 3000 nM and the “first-phase decline of levels” value ([3]; IV bolus 4-16 mg/kg, first 5 minutes) was over 10 fold. The “venous blood concentration when sedated/anesthetized” value [3, 6] was > 250 ng/mL and > 0.8 μM, the “decline of levels after discontinuation of infusion” value ([3]; first 30 minutes after 60-minute infusion) was about 50 fold and the concentration at 24 h (in vivo; both, iv) was under 0.1 ng/mL. For the same compound, the half-life (in vivo; both, iv) was about 10 min, the half-life (in vivo) was about 20 min and the “minimum effective infusion dose rate to maintain anesthesia” value (rats) was “approximately 0.5 mg/kg/min”. The “recovery from LORR and normal behavior after stopping the infusion” value (rats; 4 mg/kg bolus then 1 to 0.4 mg/kg/min step-down infusion) was 2 to 6 min, the “minimum effective bolus anesthetic dose” value (rats; IV bolus, LORR) was “approximately 1 mg/kg” and the “duration of anesthesia and LORR” value (rats; bolus dose of 4 mg/kg) was 3 to 8 min. For the same compound, the “minimal immobilizing infusion rate” value (rats; independent assessment) was 0.89 ± 0.18 mg/kg/min, the “recovery of righting reflex after infusion discontinuation” value (rats; infusion for 5 or 120 minutes) was “approximately 4 minutes” and the “time to induction of anesthesia (LORR)” value (rats; infusion of 4 mg/kg without bolus) was “approximately 3 minutes”. The “slope of duration of LORR vs logarithm of dose” value (Sprague-Dawley rats) was “approximately 10”, the “minimum effective continuous infusion dose rate (infusion MED)” value (beagle dogs; dogs) was “approximately 0.5 mg/kg/min” and the emergence from anesthesia (beagle dogs; [7]) was “approximately 5 minutes”. The “recovery of apparently normal behavior” value (beagle dogs; [7]) was 10 to 12 min, the “minimally effective anesthetic dose (MED)” value (beagle dogs; dogs, IV bolus) was “approximately 1 mg/kg” and the duration of anesthesia (beagle dogs; dogs, bolus dose of 3 or 4 mg/kg) was 3 to 6 min. The “context dependence of recovery from anesthesia” value (beagle dogs; dogs, bolus vs 30- or 120-minute infusion) was “context-independent”, the “anesthesia onset after initiation of infusion” value (beagle dogs; two dogs, 1 mg/kg/min IV infusion without bolus) was 2.5 to 4.0 min and the “ACTH-induced plasma cortisol response” value ([4]; Study 1, dogs, after 120-minute infusion) was “cortisol response to the first ACTH stimulus was inhibited, but the response to the second and third ACTH stimuli at 90 and 180 minute post-infusion were robust”. The “return of normal adrenal responsiveness after cessation of infusion” value ([4]; dogs) was 1.5 to 3 h, the “first-phase decline of levels” value ([5]; IV bolus 0.25-12 mg/kg, first 5-10 minutes) was over 10 fold and the “venous blood concentration when sedated/anesthetized” value [5, 6] was > 250 ng/mL and > 0.8 μM. For the same compound, the concentration at 24 h ([5]; both sexes, dog, in vivo, IV bolus, read-out: level in 24-hour PK samples (below level of quantification)) was under 0.1 ng/mL, the half-life ([5]; both sexes, dog, in vivo, IV bolus, read-out: secondary terminal elimination half-life) was 5 to 10 min and the half-life ([5]; dog, in vivo, read-out: half-life of secondary phase of decline after infusion) was about 20 min. The “decline of levels after discontinuation of infusion” value ([5]; first 10-30 minutes after infusion) was about 50 fold, the “effect on binding of [3H]-flunitrazepam” value (GABAA receptor channel) was “no effect” and the “effect on binding of [3H]-muscimol” value (GABAA receptor channel) was “no effect”.

Source: patent US10154991B2, “Anesthetic compounds and related methods of use” (priority 2012, dated 2018)
